From patent publication US10208066B2, “Imidazopyridazine compounds and their use” (HUTCHISON MEDIPHARMA LIMITED, priority 2014, dated 2019) come the findings set out here.

Read-outs that look alike come from different tables or passages of the source.

One assay deals with PI3K-δ (p110δ/p85α) (Homo sapiens (Human), UniProt O00329). The assay can be described thus: Transcreener KINASE Assay, fluorescent determination of PI3K enzyme activity. The format is biochemical.
Assay [1] concerns AKT phosphorylation (p-AKT Ser473) in Ramos cells. Put plainly: Inhibition of AKT phosphorylation in Ramos cell line (anti-IgM stimulated). The format is cell-based. Conditions: Homo sapiens, read-out: IC50, inhibition of AKT phosphorylation.
Protocol: 6×10^4/mL Ramos cells (ATCC, CRL-1596; cells were cultured in RPMI1640 media with 10% FBS) were seeded into a 96-well plate (Beckman Dickinson, No. 356692) at 80 uL/well, 4,800 cells/well. After incubation for 3 hr at 37° C. under 5% CO2, Ramos cells were treated with 10 uL/well various concentrations of test compound (final concentrations of the test compound: 1 uM, 0.3 uM, 0.1 uM, 0.037 uM, 0.012 uM, 0.0041 uM, 0.0014 uM and 0.0005 uM) or 0.3% DMSO for 30 min, and then were stimulated with 10 uL/well 1 ug/ml Anti-IgM (Jackson Immunoresearch, 709-006-073) for 15-20 min. • 1) Cells were fixed with 100 μL of 4% pre-warmed Paraformaldehyde (2% final concentration), and incubated for 45 min at room temperature. • 2) The paraformaldehyde solution was removed. 100 μL of ice-cold methanol was added into each well and the plate was left at 4° C. for 30 min. • 3) The cells were washed for three times with 160 μL PBS. • 4) 40 μL 1:350 dilution of Rabbit anti-p-AKT(Ser^473) antibody (Cell Signaling Technology, 4060L) in antibody dilution buffer (1% BSA, in PBS) were added into each well. The plate was inculpated overnight at 4° C. • 5) The cells were washed for 3 times with 160 uL PBS. • 6) 45 μL of Goat anti-rabbit IgG Alexa488 antibody (Invitrogen, A11034) at a 1:1,000 dilution in antibody dilution buffer (1% BSA, in PBS) were added into each well. The plate was covered with foil to keep out of light and was incubated for 90 min at room temperature. • 7) The cells were washed for 3 times with 160 uL PBS. • 8) 50 μL of 1.5 μM Propidium Iodide (Sigma: P4170) solution was added into each well to determine cell number (1.5 mM Propidium iodide stock was diluted with 1:1,000 in PBS, and the final concentration was 1.5 μM). • 9) The plate was incubated at room temperature for 30 min and then was sealed with a cover-seal. • 10) The plate was loaded into the Acumen Explorer and scan with the appropriate instrument settings.
(§1) Data was analyzed and IC50 values were generated using the add-in software for Microsoft Excel, Xlfit™ (version 5.3).
The target of the next assay is PI3K-γ (p110γ) (Homo sapiens (Human), UniProt P48736). The assay can be described thus: Transcreener KINASE Assay, fluorescent determination of PI3K enzyme activity. The format is biochemical. Conditions: for inhibition at 1 µM: read-out: PI3K-γ IH % (inhibition rate).
Sequence of PI3K-γ (p110γ) (P48736 whole entry, species assumed): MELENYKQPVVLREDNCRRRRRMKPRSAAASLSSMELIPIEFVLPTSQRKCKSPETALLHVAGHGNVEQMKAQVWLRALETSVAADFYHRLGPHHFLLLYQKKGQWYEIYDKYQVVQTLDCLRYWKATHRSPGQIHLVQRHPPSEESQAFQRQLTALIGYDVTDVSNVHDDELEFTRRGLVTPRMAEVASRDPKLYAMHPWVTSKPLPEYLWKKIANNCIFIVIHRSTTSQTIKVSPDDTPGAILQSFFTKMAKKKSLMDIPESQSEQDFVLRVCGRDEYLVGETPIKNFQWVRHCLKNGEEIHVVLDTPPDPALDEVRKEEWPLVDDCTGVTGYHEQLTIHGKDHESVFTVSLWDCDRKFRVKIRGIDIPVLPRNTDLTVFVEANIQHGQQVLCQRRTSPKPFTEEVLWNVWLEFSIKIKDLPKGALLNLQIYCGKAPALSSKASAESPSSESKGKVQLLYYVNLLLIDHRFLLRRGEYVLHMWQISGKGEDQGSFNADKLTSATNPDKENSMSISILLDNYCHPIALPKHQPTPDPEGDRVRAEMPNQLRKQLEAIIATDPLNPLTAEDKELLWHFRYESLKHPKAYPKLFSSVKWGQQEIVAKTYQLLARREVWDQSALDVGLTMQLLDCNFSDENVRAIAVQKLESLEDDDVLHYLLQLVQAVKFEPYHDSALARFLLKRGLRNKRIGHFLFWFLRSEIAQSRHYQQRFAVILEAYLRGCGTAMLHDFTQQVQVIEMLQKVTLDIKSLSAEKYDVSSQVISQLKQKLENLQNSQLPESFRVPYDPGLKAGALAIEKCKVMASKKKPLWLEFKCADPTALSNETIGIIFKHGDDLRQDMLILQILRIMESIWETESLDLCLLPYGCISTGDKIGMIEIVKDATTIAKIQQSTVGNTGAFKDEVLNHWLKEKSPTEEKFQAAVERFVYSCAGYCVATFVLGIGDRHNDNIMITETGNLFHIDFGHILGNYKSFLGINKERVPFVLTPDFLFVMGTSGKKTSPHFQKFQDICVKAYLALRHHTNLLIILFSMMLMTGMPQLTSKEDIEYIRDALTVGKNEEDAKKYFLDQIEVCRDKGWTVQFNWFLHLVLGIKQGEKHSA
A further assay concerns the target PI3K-β (Homo sapiens, UniProt P42338). The assay is described as above. The format is biochemical. The note with it: for inhibition at 1 µM: read-out: PI3K-β IH % (inhibition rate).
For assay [2], the system named is PI3Kδ signaling in basophils. Put plainly: Inhibition of PI3Kδ signaling in basophils from human whole blood. The format is cell-based. Conditions: read-out: IC50, inhibition of PI3Kδ signaling in basophils.
Protocol: Methods • 1) Heparinized human whole blood was mixed and pipetted into the 96 well v-bottom plate, 100 μL per well. • 2) 10 μL of stimulation buffer (1 mg/mL stock, final concentration of Recombinant human IL-3: 20 ng/mL) was added to the whole blood samples of each well and vortex gently. […] Vortex all the wells once more and incubate for 20 min at 37° C. • 5) Labeling with staining antibody: Degranulation was stopped by incubating the samples on ice for 5 min. 6 μL of staining antibody mixture (anti-CD63-FITC and anti-IgE-PE) was added into each well. Vortex and incubate the wells for 20 min in an ice bath, covered to prevent exposure to light. • 6) The whole blood samples were lysed with 300 uL RBC lysis (pre-warmed to room temperature, 20 to 25° C.). Vortex and incubate the samples for 15 min at room temperature. Spin down cells (5 min, 250×g, 4° C.). The supernatant was aspirated leaving approximately 100 μL in each well. • 7) The blood samples were lysed once more as step 6). • 8) Washing: The samples are washed once with 0.5 mL of washing solution. The plate was centrifuged (5 min, 250×g, 4° C.). The supernatant was aspirated leaving approximately 100 μL in each well. The sample in each well was washed and centrifuged once more as above. • 9) 200 μL of fixing solution (1% papraledehyde in 1% BSA/PBS) was added into each well.
as §1
For the next assay, the target named is PI3K-α (p110α/p85α) (Homo sapiens (Human), UniProt P42336). The assay can be described thus: Transcreener KINASE Assay, fluorescent determination of PI3K enzyme activity. The format is biochemical. The procedure: Inhibition rates were calculated as follow: IH %=(ADP amount under 2% DMSO well−ADP amount under test compound well)/ADP amount under 2% DMSO well×100%.
Sequence of PI3K-α (p110α/p85α) (P42336 whole entry, species assumed): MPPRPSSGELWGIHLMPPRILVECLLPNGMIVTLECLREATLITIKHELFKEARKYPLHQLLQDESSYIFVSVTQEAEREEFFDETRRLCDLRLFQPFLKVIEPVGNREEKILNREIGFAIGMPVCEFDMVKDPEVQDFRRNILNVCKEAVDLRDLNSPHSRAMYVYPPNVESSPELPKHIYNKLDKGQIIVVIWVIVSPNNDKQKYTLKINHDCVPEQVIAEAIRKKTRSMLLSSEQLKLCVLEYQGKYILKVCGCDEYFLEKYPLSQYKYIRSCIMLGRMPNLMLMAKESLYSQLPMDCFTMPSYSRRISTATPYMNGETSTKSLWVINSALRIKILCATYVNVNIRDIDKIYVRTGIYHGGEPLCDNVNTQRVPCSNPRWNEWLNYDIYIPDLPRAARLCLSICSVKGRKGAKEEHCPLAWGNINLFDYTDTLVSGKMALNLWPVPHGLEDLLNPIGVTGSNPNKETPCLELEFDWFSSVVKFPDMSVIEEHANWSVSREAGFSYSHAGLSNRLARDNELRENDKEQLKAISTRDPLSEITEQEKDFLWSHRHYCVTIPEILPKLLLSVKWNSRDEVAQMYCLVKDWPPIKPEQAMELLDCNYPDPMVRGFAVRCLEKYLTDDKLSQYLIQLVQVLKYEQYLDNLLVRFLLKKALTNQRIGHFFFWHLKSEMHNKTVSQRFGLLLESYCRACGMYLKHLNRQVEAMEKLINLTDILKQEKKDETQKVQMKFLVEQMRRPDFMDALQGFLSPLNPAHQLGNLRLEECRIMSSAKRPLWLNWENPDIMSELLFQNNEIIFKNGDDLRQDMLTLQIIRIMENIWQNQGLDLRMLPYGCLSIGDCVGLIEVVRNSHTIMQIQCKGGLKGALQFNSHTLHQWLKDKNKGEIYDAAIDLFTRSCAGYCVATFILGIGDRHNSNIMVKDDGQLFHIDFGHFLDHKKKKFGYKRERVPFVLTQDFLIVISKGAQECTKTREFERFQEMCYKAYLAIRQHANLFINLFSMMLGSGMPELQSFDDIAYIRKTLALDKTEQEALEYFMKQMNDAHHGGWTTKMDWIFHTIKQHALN
Sequence of PI3K-α (p110α/p85α) (P27986 whole entry partner, species assumed): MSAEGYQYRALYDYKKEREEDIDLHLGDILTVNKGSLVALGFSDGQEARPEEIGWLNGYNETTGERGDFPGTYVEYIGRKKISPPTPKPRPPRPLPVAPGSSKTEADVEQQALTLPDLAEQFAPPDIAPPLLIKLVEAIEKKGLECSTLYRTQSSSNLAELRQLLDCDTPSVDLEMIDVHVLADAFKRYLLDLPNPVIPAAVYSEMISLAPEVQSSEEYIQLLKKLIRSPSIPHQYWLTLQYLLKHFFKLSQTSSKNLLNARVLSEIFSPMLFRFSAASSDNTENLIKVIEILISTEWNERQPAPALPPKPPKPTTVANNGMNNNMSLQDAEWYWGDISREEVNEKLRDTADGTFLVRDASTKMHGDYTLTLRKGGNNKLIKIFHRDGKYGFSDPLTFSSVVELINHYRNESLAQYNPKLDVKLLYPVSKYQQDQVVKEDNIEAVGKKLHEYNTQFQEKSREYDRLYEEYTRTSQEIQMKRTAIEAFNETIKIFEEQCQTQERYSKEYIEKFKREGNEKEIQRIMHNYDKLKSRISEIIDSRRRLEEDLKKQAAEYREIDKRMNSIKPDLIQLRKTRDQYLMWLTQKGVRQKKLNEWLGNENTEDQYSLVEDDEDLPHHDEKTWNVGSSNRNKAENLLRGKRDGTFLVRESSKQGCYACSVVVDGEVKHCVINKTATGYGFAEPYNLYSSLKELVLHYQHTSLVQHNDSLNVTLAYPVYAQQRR

Setting [3] is: Ramos cells, anti-IgM stimulation.
Setting [4] is: human whole blood, anti-human IgE stimulation, CD63.
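Throughout, for PI3K-β IH % (inhibition rate): recombinant PI3K enzyme reaction, 80 min at room temperature, ADP formed detected by far-red competitive fluorescence polarization immunoassay, inhibition relative to ADP in 2% DMSO control wells.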
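Throughout, for PI3K-γ IH % (inhibition rate): ADP produced by p110γ kinase reaction, 80 min at room temperature, detected by far-red fluorescence polarization immunoassay, inhibition relative to 2% DMSO control wells.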
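Throughout, for PI3K-δ IH % (inhibition rate): ADP formed by the kinase detected via far-red competitive fluorescence polarization immunoassay after 80 min room-temperature reaction, inhibition relative to 2% DMSO wells.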

Sequence of PI3K-β (P42338 whole entry, looked up): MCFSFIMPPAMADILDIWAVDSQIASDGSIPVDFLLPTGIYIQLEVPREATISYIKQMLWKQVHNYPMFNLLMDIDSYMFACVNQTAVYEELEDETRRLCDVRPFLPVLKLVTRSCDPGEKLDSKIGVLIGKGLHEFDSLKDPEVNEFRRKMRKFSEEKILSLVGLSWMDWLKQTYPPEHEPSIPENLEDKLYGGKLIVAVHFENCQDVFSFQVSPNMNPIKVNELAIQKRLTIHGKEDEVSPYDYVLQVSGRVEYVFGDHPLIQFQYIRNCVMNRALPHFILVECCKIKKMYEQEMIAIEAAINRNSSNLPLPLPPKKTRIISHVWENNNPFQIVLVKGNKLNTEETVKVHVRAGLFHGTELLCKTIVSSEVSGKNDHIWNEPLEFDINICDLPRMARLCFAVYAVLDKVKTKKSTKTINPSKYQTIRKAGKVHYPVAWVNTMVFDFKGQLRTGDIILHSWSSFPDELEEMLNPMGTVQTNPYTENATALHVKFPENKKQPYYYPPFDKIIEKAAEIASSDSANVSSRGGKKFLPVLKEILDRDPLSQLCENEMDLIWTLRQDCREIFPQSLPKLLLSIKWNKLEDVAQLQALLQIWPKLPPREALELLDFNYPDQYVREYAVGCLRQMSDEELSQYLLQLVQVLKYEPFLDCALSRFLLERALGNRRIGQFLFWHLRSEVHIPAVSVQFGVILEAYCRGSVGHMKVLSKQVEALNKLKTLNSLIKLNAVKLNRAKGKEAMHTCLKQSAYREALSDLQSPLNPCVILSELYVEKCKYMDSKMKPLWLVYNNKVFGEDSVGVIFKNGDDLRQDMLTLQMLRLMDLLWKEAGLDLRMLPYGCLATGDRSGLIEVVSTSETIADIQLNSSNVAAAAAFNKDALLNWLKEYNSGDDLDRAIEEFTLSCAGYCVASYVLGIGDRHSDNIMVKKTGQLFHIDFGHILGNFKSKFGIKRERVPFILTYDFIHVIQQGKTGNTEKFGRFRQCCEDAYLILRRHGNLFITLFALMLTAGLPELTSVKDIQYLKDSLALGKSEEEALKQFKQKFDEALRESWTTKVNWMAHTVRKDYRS
Sequence of PI3K-δ (p110δ/p85α) (O00329 whole entry, species assumed): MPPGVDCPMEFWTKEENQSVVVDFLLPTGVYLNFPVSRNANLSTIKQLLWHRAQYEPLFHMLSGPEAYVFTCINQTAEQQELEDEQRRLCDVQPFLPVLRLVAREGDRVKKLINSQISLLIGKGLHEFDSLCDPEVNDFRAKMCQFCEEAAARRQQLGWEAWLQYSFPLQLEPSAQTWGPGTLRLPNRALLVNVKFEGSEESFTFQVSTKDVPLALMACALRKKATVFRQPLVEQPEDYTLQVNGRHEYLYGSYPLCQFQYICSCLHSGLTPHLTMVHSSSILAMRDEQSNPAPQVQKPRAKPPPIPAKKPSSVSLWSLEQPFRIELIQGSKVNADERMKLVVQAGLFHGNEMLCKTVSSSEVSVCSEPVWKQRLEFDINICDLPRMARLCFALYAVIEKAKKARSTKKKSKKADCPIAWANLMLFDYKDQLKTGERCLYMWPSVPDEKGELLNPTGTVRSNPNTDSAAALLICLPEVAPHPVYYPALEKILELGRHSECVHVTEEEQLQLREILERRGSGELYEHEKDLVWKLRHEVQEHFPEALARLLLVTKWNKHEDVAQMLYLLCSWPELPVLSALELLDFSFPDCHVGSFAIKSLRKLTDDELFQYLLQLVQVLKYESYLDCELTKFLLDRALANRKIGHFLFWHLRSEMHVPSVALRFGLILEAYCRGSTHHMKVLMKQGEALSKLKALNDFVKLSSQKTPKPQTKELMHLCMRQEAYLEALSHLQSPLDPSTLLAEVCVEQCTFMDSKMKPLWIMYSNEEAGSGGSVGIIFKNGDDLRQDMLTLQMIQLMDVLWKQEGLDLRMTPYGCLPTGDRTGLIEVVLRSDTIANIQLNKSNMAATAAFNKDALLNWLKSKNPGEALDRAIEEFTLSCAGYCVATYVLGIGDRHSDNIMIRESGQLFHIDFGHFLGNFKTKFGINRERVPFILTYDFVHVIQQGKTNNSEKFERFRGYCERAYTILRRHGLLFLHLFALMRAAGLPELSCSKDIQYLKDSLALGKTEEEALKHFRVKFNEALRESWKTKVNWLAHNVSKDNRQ
Sequence of PI3K-δ (p110δ/p85α) (P27986 whole entry partner, species assumed): as the sequence (P27986 whole entry partner, species assumed) above
Protocol for PI3K-β: (§2) It is a universal, homogenous, high throughput screening (HTS) technology using a far-red, competitive fluorescence polarization immunoassay based on the detection of ADP to monitor the activity of enzymes that catalyze group transfer reactions. […] The reaction mixture was added into desired wells of a 96-well plate. The plate was sealed and incubated for 80 min at room temperature. • 2) Next, 25 uL ADP detection mix was added into each well. The plate was sealed again and incubated for 60 min at room temperature. Then fluorescence polarization was measured by Tecan Infinite F500 Reader.
as §1
Protocol for PI3K-γ (p110γ): as §2, §1
Protocol for PI3K-δ (p110δ/p85α): as §2, §1

The term IC50 denotes the concentration at which inhibition is half-maximal. The inhibition is the relative decrease from the control value, in per cent. As to `C[C@H](Nc1ncnc(N)c1C#N)c1cc2ncc(Cl)n2nc1-c1cc(F)ccc1F` [Compound 35], the IC50 at PI3K-δ (p110δ/p85α) was determined as 4 nM; in assay [1] (setting [3]) it was 13 nM. In addition, the inhibition at 1 µM was 64.6% on PI3K-γ (p110γ) and 67.6% on PI3K-β.
As for `C[C@H](Nc1ncnc(N)c1C#N)c1cc2ncc(Cl)n2nc1-c1cc(F)cc(F)c1` [Compound 30, (S)-4-amino-6-((1-(3-chloro-6-(3,5-difluorophenyl)imidazo[1,2-b]pyridazin-7-yl)ethyl)amino)pyrimidine-5-carbonitrile], the IC50 in assay [2] (Homo sapiens) was determined as 6 nM; at PI3K-δ (p110δ/p85α) it was 3 nM; in assay [1] (Ramos), 1 nM; at PI3K-γ (p110γ), 410 nM; at PI3K-β, 1040 nM.
Regarding `C[C@H](Nc1ncnc(N)c1C#N)c1cc2ncc(Cl)n2nc1-c1cccc(S(C)(=O)=O)c1` [Compound 46], the IC50 against PI3K-δ (p110δ/p85α) worked out at 4 nM; in assay [1] (setting [3]), 6 nM; against PI3K-γ (p110γ), 50 nM; against PI3K-β, 1320 nM.
On to `C[C@@H](c1cc2ncc(Cl)n2nc1-c1ccccc1)n1ccc2c(N)ncnc21` [Compound 27, (S)-7-(1-(3-chloro-6-phenylimidazo[1,2-b]pyridazin-7-yl)ethyl)-7H-pyrrolo[2,3-d]pyrimidin-4-amine], for which the IC50 came to 565 nM in assay [2] (setting [4]) and 25 nM at PI3K-δ (p110δ/p85α). Also, the inhibition at 1 µM on PI3K-γ (p110γ) came to 24.9%; on PI3K-β, 9.5%.
Take `CC(Nc1ncnc(N)c1C#N)c1cc2ncc(Cl)n2nc1-c1ccccc1` (racemic) [Compound 2, 4-amino-6-((1-(3-chloro-6-phenylimidazo[1,2-b]pyridazin-7-yl)ethyl)amino)pyrimidine-5-carbonitrile]: the IC50 against PI3K-α (p110α/p85α) was > 1000 nM.
For `Cc1cccc(-c2nn3c(Cl)cnc3cc2[C@H](C)Nc2ncnc(N)c2C#N)c1` [Compound 62], the IC50 in assay [2] (setting [4]) worked out at 15 nM; at PI3K-δ (p110δ/p85α), 2 nM; in assay [1] (setting [3]) it was 1 nM; at PI3K-γ (p110γ) it was 247 nM; against PI3K-β it was 1230 nM.
The corresponding values for `C[C@H](Nc1ncnc(N)c1C#N)c1cc2ncc(Cl)n2nc1-c1cccc(C(F)(F)F)c1` [Compound 48] are 41 nM, 9 nM, 8 nM, 1330 nM and 4080 nM.
For `C[C@H](Nc1ncnc(N)c1C(N)=O)c1cc2ncc(Cl)n2nc1-c1ccccc1` [Compound 53, (S)-4-amino-6-((1-(3-chloro-6-phenylimidazo[1,2-b]pyridazin-7-yl)ethyl)amino)pyrimidine-5-carboxamide], the IC50 in assay [1] (setting [3]) came out at 16 nM. Also, the inhibition at 1 µM turned out to be 34.3% at PI3K-γ (p110γ) and 30.5% on PI3K-β.
In the case of `C[C@H](Nc1ncnc(N)c1C#N)c1cc2ncc(Cl)n2nc1-c1cc(F)cc(Cl)c1` [Compound 66], the IC50 in assay [2] (setting [4]) was 262 nM; against PI3K-δ (p110δ/p85α), 9 nM; in assay [1] (setting [3]) it was 2 nM; against PI3K-γ (p110γ), 1120 nM; at PI3K-β, 4300 nM.
As to `Cc1nc2cc([C@H](C)Nc3ncnc(N)c3C#N)c(-c3ccccc3)nn2c1Cl` [Compound 59], the IC50 in assay [2] (setting [4]) came to 100 nM; at PI3K-δ (p110δ/p85α), 5 nM; in assay [1] (setting [3]), 6 nM; on PI3K-γ (p110γ), 2390 nM; against PI3K-β, 1160 nM.
Regarding `Cc1ccccc1-c1nn2c(Cl)cnc2cc1[C@H](C)Nc1ncnc(N)c1C#N` [Compound 31, (S)-4-amino-6-((1-(3-chloro-6-(o-tolyl)imidazo[1,2-b]pyridazin-7-yl)ethyl)amino)pyrimidine-5-carbonitrile], the IC50 came to 4 nM against PI3K-δ (p110δ/p85α), 2 nM in assay [1] (setting [3]), 146 nM against PI3K-γ (p110γ) and 371 nM against PI3K-β.
The corresponding values for `C[C@H](Nc1ncnc(N)c1Cl)c1cc2ncc(Cl)n2nc1-c1ccccc1` [Compound 40] are 2 nM, 3 nM, > 333 nM and 277 nM.
On to `C[C@H](Nc1ncnc(N)c1C#N)c1cc2ncc(Cl)n2nc1-c1cccc(C#N)c1` [Compound 65], for which the IC50 in assay [2] (setting [4]) came out at 14 nM; on PI3K-δ (p110δ/p85α) it was 2 nM; in assay [1] (setting [3]), 2 nM; against PI3K-γ (p110γ) it was 611 nM; at PI3K-β, 1260 nM.
On to `C[C@H](Nc1ncnc(N)c1C#N)c1cc2ncc(Cl)n2nc1-c1ccccc1C(F)(F)F` [Compound 45], for which the IC50 against PI3K-δ (p110δ/p85α) amounted to 3 nM; in assay [1] (setting [3]), 3 nM; at PI3K-γ (p110γ), 195 nM; against PI3K-β, 450 nM.
Consider `C[C@H](Nc1ncnc(N)c1C#N)c1cc2ncc(Cl)n2nc1-c1cccnc1` [Compound 77], for which the IC50 against PI3K-δ (p110δ/p85α) came out at 2 nM; in assay [1] (setting [3]) it was 3 nM; against PI3K-γ (p110γ) it was 436 nM; against PI3K-β, 238 nM.
Regarding `C[C@H](Nc1ncnc(N)c1C#N)c1cc2ncc(Cl)n2nc1-c1ccc2scnc2c1` [Compound 74], the IC50 is 9 nM against PI3K-δ (p110δ/p85α) and 23 nM in assay [1] (setting [3]). Further, the figures for the inhibition at 1 µM on PI3K-γ (p110γ) and on PI3K-β were 40.8% and 49.4%, respectively.
For the compound `C[C@H](Nc1ncnc(N)c1-c1nn[nH]n1)c1cc2ncc(Cl)n2nc1-c1ccccc1` [Compound 21, (S)—N^4-(1-(3-chloro-6-phenylimidazo[1,2-b]pyridazin-7-yl)ethyl)-5-(2H-tetrazol-5-yl)pyrimidine-4,6-diamine], the results for the IC50 against PI3K-δ (p110δ/p85α) and at PI3K-γ (p110γ) were 6 nM and 424 nM, respectively. On PI3K-α (p110α/p85α) (at 1 μM, read-out: PI3K-α IH % (inhibition rate)), the inhibition at 1 µM was 21.7%.
Consider `C[C@H](Nc1ncnc(N)c1C#N)c1cc2ncc(Cl)n2nc1-c1cccc(F)c1F` [Compound 36], for which the IC50 was 3 nM at PI3K-δ (p110δ/p85α), 1 nM in assay [1] (setting [3]), 243 nM against PI3K-γ (p110γ) and 1310 nM against PI3K-β.
On to `C[C@H](Nc1ncnc(N)c1C#N)c1cc2ncc(Cl)n2nc1-c1ccc2cccnc2c1` [Compound 61], for which the IC50 in assay [2] (setting [4]) came out at 109 nM; against PI3K-δ (p110δ/p85α), 7 nM; in assay [1] (setting [3]), 41 nM. In addition, the inhibition at 1 µM is 26.5% on PI3K-γ (p110γ) and 24.4% on PI3K-β.
As to `C[C@H](Nc1ncnc(N)c1C#N)c1cc2ncc(Cl)n2nc1-c1ccccc1S(C)(=O)=O` [Compound 68], the IC50 in assay [2] (setting [4]) turned out to be 2 nM; against PI3K-δ (p110δ/p85α), 2 nM; in assay [1] (setting [3]) it was 1 nM; against PI3K-γ (p110γ), 345 nM; at PI3K-β it was 963 nM.
Turning to `Cc1cn2nc(-c3ccccc3)c([C@H](C)Nc3ncnc(N)c3C#N)cc2n1` [Compound 58], the IC50 against PI3K-δ (p110δ/p85α) came out at 138 nM. Also, the results for the inhibition at 1 µM on PI3K-γ (p110γ) and on PI3K-β were 20.2% and 20.5%, respectively.
As for `Cc1noc(-c2c(N)ncnc2N[C@@H](C)c2cc3ncc(Cl)n3nc2-c2ccccc2)n1` [Compound 82, (S)—N^4-(1-(3-chloro-6-phenylimidazo[1,2-b]pyridazin-7-yl)ethyl)-5-(3-methyl-1,2,4-oxadiazol-5-yl)pyrimidine-4,6-diamine], the IC50 against PI3K-δ (p110δ/p85α) was 13 nM; on PI3K-γ (p110γ), 203 nM. Besides, the inhibition at 1 µM at PI3K-β amounted to 55.2%.
The compound `C[C@H](Nc1ncnc(N)c1C#N)c1cc2ncc(Cl)n2nc1-c1ccc2ccccc2c1` [Compound 71] came in with an IC50 against PI3K-δ (p110δ/p85α) of 129 nM. Also, the inhibition at 1 µM at PI3K-γ (p110γ) came out at 32.6%; at PI3K-β, 35.2%.
With `Cc1cc(F)cc(-c2nn3c(Cl)cnc3cc2[C@H](C)Nc2ncnc(N)c2C#N)c1` [Compound 67], the IC50 was determined as 10 nM in assay [2] (setting [4]); 5 nM against PI3K-δ (p110δ/p85α); 3 nM in assay [1] (setting [3]); 1140 nM against PI3K-γ (p110γ); 3580 nM against PI3K-β.
As to `C[C@H](Nc1ncnc(N)c1C#N)c1cc2ncc(Cl)n2nc1-c1cccc(Cl)c1` [Compound 41], the IC50 was 18 nM in assay [2] (setting [4]); 3 nM on PI3K-δ (p110δ/p85α); 12 nM in assay [1] (setting [3]); 499 nM on PI3K-γ (p110γ); 1330 nM on PI3K-β.
Take `Cc1nc(N)c(C#N)c(N[C@@H](C)c2cc3ncc(Cl)n3nc2-c2ccccc2)n1` [Compound 32]: the IC50 against PI3K-δ (p110δ/p85α) was 15 nM; in assay [1] (setting [3]), 20 nM; against PI3K-γ (p110γ), 243 nM. Moreover, on PI3K-β, the inhibition at 1 µM came to 23.8%.
For `CC[C@@H](Nc1ncnc(N)c1C#N)c1cc2ncc(Cl)n2nc1-c1cccc(F)c1` [Compound 43, (R)-4-amino-6-((1-(3-chloro-6-(3-fluorophenyl)imidazo[1,2-b]pyridazin-7-yl)propyl)amino)pyrimidine-5-carbonitrile], the IC50 on PI3K-δ (p110δ/p85α) stood at 132 nM. In addition, the inhibition at 1 µM on PI3K-γ (p110γ) worked out at 27.2%; on PI3K-β, 23.6%.
Consider `C[C@H](Nc1ncnc(N)c1C#N)c1cc2ncc(Cl)n2nc1-c1ccc2ccn(C)c2c1` [Compound 76], for which the inhibition at 1 µM at PI3K-δ (p110δ/p85α) (at 1 μM, read-out: PI3K-δ IH % (inhibition rate)) was 48.9%; on PI3K-γ (p110γ), -14.3%; on PI3K-β it was 54.9%.
Consider `CC(Nc1ncnc2[nH]cc(C#N)c12)c1cc2ncc(Cl)n2nc1-c1ccccc1` (single isomer, unassigned) [Compound 9], for which the IC50 on PI3K-δ (p110δ/p85α) was 2 nM; against PI3K-γ (p110γ), 46 nM; against PI3K-β it was 158 nM.
On to `C[C@H](Nc1ncnc(N)c1C#N)c1cc2ncc(Cl)n2nc1-c1cccc(O)c1` [Compound 54], for which the values for the IC50 against PI3K-δ (p110δ/p85α), at PI3K-γ (p110γ) and on PI3K-β were 2 nM, 226 nM and 9 nM, respectively.
